pEC50: −log10 of the molar value.
What was measured:
human mGluR5a receptor = human mGluR5a receptor (Homo sapiens, UniProt P41594); test: Cell-based functional assay: Ca2+ mobilization (FDSS), potentiation of glutamate EC20 response; conditions: for pEC50: HEK cells (H10H or H12H) transfected with human mGluR5, in presence of EC20 glutamate, >10 uM estimated where no plateau but >20% increase; for Emax: maximum average response at a single concentration, as percent of maximal glutamate response
Chain of human mGluR5a receptor (P41594 21-1180 isoform P41594-2 limits assumed): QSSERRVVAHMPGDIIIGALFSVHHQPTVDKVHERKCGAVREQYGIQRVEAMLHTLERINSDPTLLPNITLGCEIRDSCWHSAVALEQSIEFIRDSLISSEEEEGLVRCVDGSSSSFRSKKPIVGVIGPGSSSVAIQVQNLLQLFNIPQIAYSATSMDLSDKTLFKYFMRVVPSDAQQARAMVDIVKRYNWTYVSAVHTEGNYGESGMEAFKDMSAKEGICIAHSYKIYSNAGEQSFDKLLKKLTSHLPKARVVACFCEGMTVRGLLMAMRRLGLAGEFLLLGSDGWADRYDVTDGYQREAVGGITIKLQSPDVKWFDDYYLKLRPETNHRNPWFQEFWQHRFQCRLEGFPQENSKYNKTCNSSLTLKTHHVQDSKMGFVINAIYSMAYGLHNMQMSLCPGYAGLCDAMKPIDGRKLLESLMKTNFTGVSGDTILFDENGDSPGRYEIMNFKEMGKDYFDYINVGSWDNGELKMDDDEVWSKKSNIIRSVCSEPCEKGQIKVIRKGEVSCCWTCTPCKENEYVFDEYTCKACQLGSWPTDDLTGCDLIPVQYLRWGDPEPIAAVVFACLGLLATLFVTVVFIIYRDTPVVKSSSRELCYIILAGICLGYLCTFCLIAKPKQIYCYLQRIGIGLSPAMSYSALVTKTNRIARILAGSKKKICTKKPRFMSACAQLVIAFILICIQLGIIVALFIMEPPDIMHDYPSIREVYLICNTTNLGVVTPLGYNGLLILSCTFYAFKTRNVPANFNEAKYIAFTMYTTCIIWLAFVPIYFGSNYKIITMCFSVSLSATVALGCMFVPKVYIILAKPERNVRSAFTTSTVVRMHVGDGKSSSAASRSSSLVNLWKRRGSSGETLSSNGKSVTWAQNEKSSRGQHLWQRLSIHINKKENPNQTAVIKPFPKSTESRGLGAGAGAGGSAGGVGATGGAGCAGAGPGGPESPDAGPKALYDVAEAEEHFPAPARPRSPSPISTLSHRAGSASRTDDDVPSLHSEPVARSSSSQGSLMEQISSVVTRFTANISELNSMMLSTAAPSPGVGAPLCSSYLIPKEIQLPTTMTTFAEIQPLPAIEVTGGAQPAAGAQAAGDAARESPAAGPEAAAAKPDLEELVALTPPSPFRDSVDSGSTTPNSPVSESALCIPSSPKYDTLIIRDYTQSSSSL
Description: Table 1 below lists specific compounds as well as experimentally determined mGluR5 activity determined in a cell-based assay. The mGluR5 activity was determined using the metabotropic glutamate receptor activity assays in human embryonic kidney cells as described herein, wherein the human embryonic kidney cells were transfected with human mGluR5. The compounds in Table 1 were synthesized with methods identical or analogous to those shown herein. The column labeled “Rxn” and the data thereunder indicated in Table 1 refers to the Reaction Scheme number described above. The requisite starting materials were commercially available, described in the literature, or readily synthesized by one skilled in the art of organic synthesis.
Human mGluR5a cDNA in pCMV6-XL6 mammalian expression plasmid was purchased from OriGene Technologies, Inc. (catalogue number SC326357) and subcloned into pcDNA3.1(−). Human embryonic kidney (HEK)293A cells were then transfected with human mGluR5a pcDNA3.1(−) using LipofectAmine2000 (Invitrogen) and monoclones were selected and tested for functional response using a Ca^2+ mobilization assay. Monoclones were named for the species (“H” for human) plus the location on the plate (e.g. “10H”).
HEK cells transfected with the human mGluR5a receptor (H10H or H12H cell line) were plated at 15,000 cells/well in clear-bottomed poly-D-lysine-coated assay plates (BD Falcon) in glutamate-glutamine-free growth medium and incubated overnight at 37° C. and 5% CO2. Cell-lines used were either the H10H or H12H cell-lines expressing the human mGluR5 receptor. The following day, the growth medium was removed and the cells were washed with assay buffer containing 1× Hank's balanced salt solution (Invitrogen, Carlsbad, Calif.), 20 mM HEPES, 2.5 mM probenecid, pH 7.4 and left with 20 μL of this reagent. Following this step, the cells were loaded with calcium indicator dye, fluo-4 AM, to a final concentration of 2 μM and incubated for 40-45 min at 37° C. The dye solution was removed and replaced with assay buffer. Cell plates were held for 10-15 min at room temperature and were then loaded into the Functional Drug Screening System 6000 (FDSS 6000, Hamamatsu, Japan).
After establishment of a fluorescence baseline for about 3 seconds, the compounds of the present invention were added to the cells, and the response in cells was measured. 2.3 minutes later an EC20 concentration of the mGluR5 receptor agonist glutamate was added to the cells, and the response of the cells was measured for about 1.7 minutes. All test compounds were dissolved and diluted to a concentration of 10 mM in 100% DMSO and then serially diluted into assay buffer for a 2× stock solution in 0.6% DMSO; stock compounds were then added to the assay for a final DMSO concentration of 0.3% after the first addition to the assay well. Calcium fluorescence measures were recorded as fold over basal fluorescence; raw data was then normalized to the maximal response to glutamate. Potentiation of the agonist response of the mGluR5 receptor in the present invention was observed as an increase in response to submaximal concentrations of glutamate in the presence of compound compared to the response to glutamate in the absence of compound.
The concentration-response curves of compounds of the present invention, obtained in the presence of EC20 of mGluR5 receptor agonist glutamate to determine positive allosteric modulation, were generated using Microsoft Excel with IDBS XLfit add-ins. The raw data file containing all time points was used as the data source in the analysis template. This was saved by the FDSS as a tab-delimited text file. Data were normalized using a static ratio function (F/F0) for each measurement of the total 350 values per well divided by each well's initial value. Data was then reduced as to peak amplitudes (Max—Initial Min) using a time range that starts approximately 1 second after the glutamate EC20 addition and continues for approximately 40 seconds. […]

[1] = system: amphetamine-induced hyperlocomotion; test: Reversal of amphetamine-induced hyperlocomotion; assay type: in vivo, male Sprague-Dawley rats; conditions: 10 mg/kg, vehicle 20% HP-beta-CD; amphetamine 1 mg/kg sc; rat
Description: Locomotor activity was assessed as mean distance traveled (cm) in standard 16×16 photocell testing chambers measuring 43.2 cm (Length)×43.2 cm (Width)×30.5 cm (Height) (Med Associates, St. Albans, Vt.). Animals were habituated to individual activity chambers for at least 30 min prior to drug administration. Following administration of drug or vehicle, activity was recorded for a […] time period. Data was expressed as the mean (±SEM) distance traveled recorded in 5 min intervals over the test period. The data were analyzed using repeated measures analysis of variance (ANOVA) followed by post-hoc testing using Dunnett's test, when appropriate. A difference was considered significant when p≦0.05. Amphetamine sulfate was obtained from Sigma (Cat#A5880-1G; St. Louis, Mo.) and 10 mg was dissolved in 10 ml of water. Test compound, 2-((3-fluorobenzyl)oxy)-7,8-dihydro-1,6-naphthyridin-5(6H)-one, was formulated in a volume of 10 ml with an amount of drug appropriate to the dosage indicated. […] At 60 min, all rats were injected subcutaneously with 1 mg/kg amphetamine or vehicle and then monitored for an additional 60 min. Animals are monitored for a total of 120 minutes. Data are expressed as changes in ambulation defined as total number of beam breaks per 5 min periods. The data for the dose-response studies were analyzed by a between-group analysis of variance. […]

pEC50 (human mGluR5a receptor)	Emax (human mGluR5a receptor)	SMILES	apparent reversal of amphetamine-induced hyperlocomotion [1]
< 4.52	15%	C[C@H](N1CCc2cc(COc3ccccc3)cnc2C1=O)C(C)(C)C [compound 27]	–
< 5.00	43%	O=C1NCCc2ncc(OCc3ccccc3)cc21 [compound 15]	–
< 5.00	44%	CN1CCc2ncc(COc3cccc(F)c3)cc2C1=O [compound 13]	–
5.38	39%	O=C1c2ccc(OCc3cccc(F)c3)nc2CCN1Cc1cccc(Cl)c1F [compound 2]	–
< 4.52	–	O=C1c2cc(OCc3ccccc3)cnc2CCN1c1cccnc1 [compound 19]	–
< 5.00	40%	O=C1c2ccc(OCc3cccc(F)c3)nc2CCN1c1ccc(F)cn1 [compound 5]	–
6.20	39%	O=C1c2ccc(OCc3cccc(F)c3)nc2CCN1CC1CCC1 [compound 11]	–
6.36	49%	O=C1c2ccc(OCc3ccccc3)nc2CCN1CC1CCC1 [compound 24]	–
5.80	64%	COc1ccc(CN2CCc3ncc(COc4cccc(F)c4)cc3C2=O)cc1 [compound 12]	–
6.43	71%	O=C1NCCc2nc(OCc3cccc(F)c3)ccc21 [compound 1]	–
< 5.00	67%	O=C1c2cc(OCc3ccccc3)cnc2CCN1c1ccc(F)cc1F [compound 18]	–
6.15	79%	O=C1NCCc2nc(OCc3ccccc3F)ccc21 [compound 10]	–
6.14	76%	O=C1c2ncc(COc3ccccc3)cc2CCN1c1ccc(F)cc1 [compound 8]	–
< 4.52	–	O=C1c2cc(OCc3ccccc3)cnc2CCN1c1ccccn1 [compound 17]	–
5.56	52%	O=C1c2cc(OCc3ccccc3)cnc2CCN1CC1CCC1 [compound 22]	–
6.90	66%	O=C1c2ccc(OCc3ccccc3)nc2CCN1c1ccc(F)cc1 [compound 23]	–
6.44	66%	O=C1c2ccc(COc3cccc(F)c3)nc2CCN1c1ccc(F)cn1 [compound 7]	–
–	–	O=C1c2ccc(OCc3ccccc3)nc2CCN1c1ccc(F)cc1 [2-(benzyloxy)-6-(4-fluorophenyl)-7,8-dihydro-1,6-naphthyridin-5(6H)-one]	35%
< 5.00	34%	O=C1c2cc(OCc3ccccc3)cnc2CCN1c1ccc(F)cc1 [compound 21]	–
< 5.00	40%	COc1ccc(CN2CCc3nc(OCc4cccc(F)c4)ccc3C2=O)cc1C(F)(F)F [compound 3]	–
< 4.52	–	Cc1cccc(N2CCc3ncc(OCc4ccccc4)cc3C2=O)n1 [compound 20]	–
< 4.52	21%	CN1CCc2cc(COc3ccccc3)cnc2C1=O [compound 26]	–
6.72	55%	O=C1NCCc2nc(OCc3cccc(Cl)c3)ccc21 [compound 9]	–
< 5.00	46%	COc1ccc(CN2CCc3ncc(OCc4ccccc4)cc3C2=O)cc1 [compound 14]	–
6.01	41%	O=C1c2ccc(OCc3cccc(F)c3)nc2CCN1c1cccc(F)c1 [compound 4]	–
< 4.52	43%	O=C1NCCc2cc(COc3ccccc3)cnc21 [compound 25]	–
6.70	72%	O=C1c2ccc(COc3cccc(F)c3)nc2CCN1c1ccc(F)cc1 [compound 6]	–
